Source: patent US8703961B2, “Thiazole derivatives for the treatment of diseases such as cancer” (Merck Patent GmbH, priority 2009, dated 2014)

Tests used:
Assay in all cases: filter binding kinase assay
Type in all cases: biochemical
IKBKE = target: T1, IKBKE (Homo sapiens, UniProt Q14164); settings: derived from % inhibition at 1 μM
T1 construct: purchased
T1 sequence (Q14164 1-716): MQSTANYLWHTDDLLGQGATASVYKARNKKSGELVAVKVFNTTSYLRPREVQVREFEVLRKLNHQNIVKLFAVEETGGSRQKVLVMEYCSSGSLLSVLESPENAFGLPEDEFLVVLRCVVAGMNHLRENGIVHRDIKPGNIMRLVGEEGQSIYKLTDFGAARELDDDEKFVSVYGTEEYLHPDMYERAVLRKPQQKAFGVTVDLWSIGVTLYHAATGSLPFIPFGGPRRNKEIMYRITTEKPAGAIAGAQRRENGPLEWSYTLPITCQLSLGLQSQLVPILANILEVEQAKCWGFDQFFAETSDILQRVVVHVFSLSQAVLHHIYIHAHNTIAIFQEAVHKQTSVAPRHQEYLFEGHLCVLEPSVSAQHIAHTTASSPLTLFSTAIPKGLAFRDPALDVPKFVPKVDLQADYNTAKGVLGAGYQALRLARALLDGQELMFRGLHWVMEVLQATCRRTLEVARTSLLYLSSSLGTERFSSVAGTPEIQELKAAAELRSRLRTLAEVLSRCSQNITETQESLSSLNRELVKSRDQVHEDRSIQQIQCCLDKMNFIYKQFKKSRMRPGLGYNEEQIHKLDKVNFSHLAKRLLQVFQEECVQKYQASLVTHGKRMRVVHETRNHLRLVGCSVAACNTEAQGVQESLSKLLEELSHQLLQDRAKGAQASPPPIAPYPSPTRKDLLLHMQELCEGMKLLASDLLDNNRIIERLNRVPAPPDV
Outline: (§1)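 Each reaction ran at ambient temperature following a five-minute compound preincubation, was started with ATP (5, 20 or 50 […] stock, per enzyme) and stopped with acid; substrate phosphorylation was read by scintillation counting of P81 filters.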

MARK4 = target: T2, MARK4 (Homo sapiens, UniProt Q96L34); settings: derived from % inhibition at 1 μM
T2 construct: purchased
T2 sequence (Q96L34 1-752): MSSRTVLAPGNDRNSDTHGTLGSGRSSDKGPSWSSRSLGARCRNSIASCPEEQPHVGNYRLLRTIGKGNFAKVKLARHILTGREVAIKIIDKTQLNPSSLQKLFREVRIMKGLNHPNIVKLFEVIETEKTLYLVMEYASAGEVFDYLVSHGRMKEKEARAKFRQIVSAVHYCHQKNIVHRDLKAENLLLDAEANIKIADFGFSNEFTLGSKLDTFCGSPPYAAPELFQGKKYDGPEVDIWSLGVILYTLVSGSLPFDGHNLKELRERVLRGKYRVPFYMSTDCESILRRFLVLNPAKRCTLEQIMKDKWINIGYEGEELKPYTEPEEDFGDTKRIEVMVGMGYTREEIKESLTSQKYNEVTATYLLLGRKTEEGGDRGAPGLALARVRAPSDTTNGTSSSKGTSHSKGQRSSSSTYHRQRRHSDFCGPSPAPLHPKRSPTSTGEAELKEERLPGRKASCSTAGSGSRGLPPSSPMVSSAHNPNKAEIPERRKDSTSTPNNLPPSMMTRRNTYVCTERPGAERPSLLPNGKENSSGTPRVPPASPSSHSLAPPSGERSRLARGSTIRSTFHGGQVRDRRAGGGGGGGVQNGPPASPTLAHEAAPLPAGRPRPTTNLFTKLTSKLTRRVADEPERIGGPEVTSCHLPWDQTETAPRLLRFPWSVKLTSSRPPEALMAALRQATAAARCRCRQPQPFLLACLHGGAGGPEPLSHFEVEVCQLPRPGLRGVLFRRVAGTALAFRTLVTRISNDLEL
Outline: as §1

MARK2 = target: T3, MARK2 (Homo sapiens, UniProt Q7KZI7); settings: for IC50: derived from % inhibition at 1 μM
T3 construct: purchased
T3 sequence (Q7KZI7 whole entry, species assumed): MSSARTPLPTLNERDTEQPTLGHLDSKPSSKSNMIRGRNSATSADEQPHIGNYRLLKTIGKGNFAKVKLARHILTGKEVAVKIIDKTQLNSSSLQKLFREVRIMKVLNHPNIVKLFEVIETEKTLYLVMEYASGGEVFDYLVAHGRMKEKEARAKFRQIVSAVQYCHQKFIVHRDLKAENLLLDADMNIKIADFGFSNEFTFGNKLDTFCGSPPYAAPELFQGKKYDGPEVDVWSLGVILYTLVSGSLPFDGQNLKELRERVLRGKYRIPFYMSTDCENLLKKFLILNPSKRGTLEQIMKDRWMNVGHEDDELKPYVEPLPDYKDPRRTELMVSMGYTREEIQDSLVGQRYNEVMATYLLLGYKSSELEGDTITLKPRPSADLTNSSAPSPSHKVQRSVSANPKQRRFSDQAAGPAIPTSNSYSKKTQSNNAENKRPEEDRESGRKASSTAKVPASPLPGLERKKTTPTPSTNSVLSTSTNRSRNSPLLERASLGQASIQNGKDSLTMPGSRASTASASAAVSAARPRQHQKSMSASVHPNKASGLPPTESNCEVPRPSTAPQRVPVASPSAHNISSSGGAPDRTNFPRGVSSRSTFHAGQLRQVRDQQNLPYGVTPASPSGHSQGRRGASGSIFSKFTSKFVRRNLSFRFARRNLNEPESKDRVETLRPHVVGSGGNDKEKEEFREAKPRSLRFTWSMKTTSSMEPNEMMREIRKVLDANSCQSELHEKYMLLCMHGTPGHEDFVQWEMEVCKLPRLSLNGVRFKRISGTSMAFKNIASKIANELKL
Outline: as §1

CSNK2A1 (CK2) = target: T4, CSNK2A1 (CK2) (Homo sapiens, UniProt P68400); settings: for IC50: derived from % inhibition at 1 μM
T4 construct: purchased
T4 sequence (P68400 whole entry, species assumed): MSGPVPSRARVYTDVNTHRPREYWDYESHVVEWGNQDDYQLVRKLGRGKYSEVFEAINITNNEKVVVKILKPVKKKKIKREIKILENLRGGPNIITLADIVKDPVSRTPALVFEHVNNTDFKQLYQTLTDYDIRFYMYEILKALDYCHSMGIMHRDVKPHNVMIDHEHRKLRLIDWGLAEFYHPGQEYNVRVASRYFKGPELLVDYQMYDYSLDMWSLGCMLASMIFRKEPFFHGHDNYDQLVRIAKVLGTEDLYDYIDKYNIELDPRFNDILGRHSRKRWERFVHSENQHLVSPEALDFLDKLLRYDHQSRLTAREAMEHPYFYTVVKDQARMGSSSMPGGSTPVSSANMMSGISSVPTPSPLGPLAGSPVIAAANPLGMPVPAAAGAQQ
Outline: as §1

NEK2 (Nek2A) = target: T5, NEK2 (Nek2A) (Homo sapiens, UniProt P51955); settings: for IC50: derived from % inhibition at 1 μM
T5 construct: purchased
T5 sequence (P51955 1-445): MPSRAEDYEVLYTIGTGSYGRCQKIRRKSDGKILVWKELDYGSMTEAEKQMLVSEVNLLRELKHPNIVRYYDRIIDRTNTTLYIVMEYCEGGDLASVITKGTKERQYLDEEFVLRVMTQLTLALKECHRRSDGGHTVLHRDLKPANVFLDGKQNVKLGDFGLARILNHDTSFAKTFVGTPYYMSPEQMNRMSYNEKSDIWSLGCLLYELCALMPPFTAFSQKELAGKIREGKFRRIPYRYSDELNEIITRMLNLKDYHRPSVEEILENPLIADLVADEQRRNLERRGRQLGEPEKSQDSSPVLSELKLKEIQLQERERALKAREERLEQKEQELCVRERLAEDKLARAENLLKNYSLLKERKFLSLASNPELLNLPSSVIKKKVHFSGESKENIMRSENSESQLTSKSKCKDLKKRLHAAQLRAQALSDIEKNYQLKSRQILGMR
Outline: as §1

PRKCZ = target: T6, PRKCZ (Homo sapiens, UniProt Q05513); settings: derived from % inhibition at 1 μM
T6 construct: purchased
T6 sequence (Q05513 1-592): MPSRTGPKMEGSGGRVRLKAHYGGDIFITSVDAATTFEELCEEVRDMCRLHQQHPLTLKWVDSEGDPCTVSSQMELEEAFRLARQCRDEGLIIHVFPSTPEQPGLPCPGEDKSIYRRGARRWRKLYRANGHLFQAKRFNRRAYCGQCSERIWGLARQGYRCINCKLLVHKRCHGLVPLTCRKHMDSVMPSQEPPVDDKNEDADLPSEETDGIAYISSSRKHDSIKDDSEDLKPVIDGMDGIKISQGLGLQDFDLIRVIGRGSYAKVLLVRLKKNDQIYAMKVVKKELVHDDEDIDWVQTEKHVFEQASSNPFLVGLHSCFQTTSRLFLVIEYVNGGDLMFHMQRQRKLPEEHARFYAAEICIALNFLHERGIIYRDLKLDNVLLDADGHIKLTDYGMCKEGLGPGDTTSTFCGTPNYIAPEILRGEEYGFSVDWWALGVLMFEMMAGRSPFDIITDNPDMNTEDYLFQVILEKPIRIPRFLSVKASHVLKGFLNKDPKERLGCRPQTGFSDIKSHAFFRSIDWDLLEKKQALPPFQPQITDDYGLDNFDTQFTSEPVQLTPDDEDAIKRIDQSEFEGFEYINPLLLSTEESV
Outline: as §1

SMILES	IC50 (IKBKE)	IC50 (MARK4)	IC50 (MARK2)	remaining activity at 1 µM (CSNK2A1 (CK2); read-out: residual kinase activity CK2)	IC50 (NEK2 (Nek2A))	IC50 (PRKCZ)	remaining activity at 1 µM (MARK2; read-out: residual kinase activity MARK2)	IC50 (CSNK2A1 (CK2))	remaining activity at 1 µM (NEK2 (Nek2A); read-out: residual kinase activity Nek2A)
c1ccc(Cc2c[nH]c3ncsc23)cc1 [Compound A7, 6-benzyl-4H-pyrrolo[2,3-d]thiazole]	10 to 100 µM	> 1 µM	10 to 100 µM	53%	> 1 µM	> 1 µM	–	–	–
Nc1ncsc1C#Cc1cnc2[nH]ccc2c1 [Compound A22, 5-(1H-pyrrolo[2,3-b]pyridin-5-ylethynyl)thiazol-4-ylamine]	> 1 µM	10 to 100 µM	0.01 to 1 µM	–	> 1 µM	> 1 µM	31%	> 1 µM	–
CC(C)(C)OC(=O)Nc1nc(-c2ccncc2)sc1C#CCN1CCOCC1 [Compound A25, tert-butyl[5-(3-morpholin-4-ylprop-1-ynyl)-2-pyridin-4-ylthiazol-4-yl]-carbamate]	1 to 10 µM	10 to 100 µM	> 1 µM	–	1 to 10 µM	10 to 100 µM	–	> 1 µM	–
CC(C)(C)OC(=O)Nc1ncsc1C#CCN1C(=O)c2ccccc2C1=O [Compound A26, tert-butyl{5-[3-(1,3-dioxo-1,3-dihydroisoindol-2-yl)prop-1-ynyl]-thiazol-4-yl}carbamate]	10 to 100 µM	> 1 µM	1 to 10 µM	–	1 to 10 µM	10 to 100 µM	–	10 to 100 µM	–
Nc1ncsc1C#Cc1cccc(O)c1 [Compound A27, 3-(4-aminothiazol-5-ylethynyl)phenol]	> 1 µM	1 to 10 µM	10 to 100 µM	–	1 to 10 µM	> 1 µM	–	> 1 µM	59%
